Results taken from PubChem BioAssay (NCI).
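Cultured in 96-well plates, cells were exposed to test compound for 48 hours across five concentrations. TGI: total growth inhibition.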

How the values were obtained:
Test in all cases: inhibition of tumour cell growth, NCI panel, 48 h
NCI-H522 lung = tested on: NCI-H522 lung
NCI-H226 lung = tested on: NCI-H226 lung
TK-10 renal = tested on: TK-10 renal
OVCAR-8 ovarian = tested on: OVCAR-8 ovarian
MDA-MB-435 = tested on: MDA-MB-435
HS 578T breast = tested on: HS 578T breast
UACC-62 melanoma = tested on: UACC-62 melanoma
KM12 colon = tested on: KM12 colon
MALME-3M melanoma = tested on: MALME-3M melanoma
SF-295 CNS = tested on: SF-295 CNS
SF-268 CNS = tested on: SF-268 CNS
NCI-H23 lung = tested on: NCI-H23 lung
NCI-H460 lung = tested on: NCI-H460 lung
HCT-15 colon = tested on: HCT-15 colon
ACHN renal = tested on: ACHN renal
HOP-62 NSCLC = tested on: HOP-62 NSCLC
DU-145 prostate = tested on: DU-145 prostate
EKVX NSCLC = tested on: EKVX NSCLC
SW-620 colon = tested on: SW-620 colon
RPMI-8226 leukemia = tested on: RPMI-8226 leukemia
SN12C renal = tested on: SN12C renal
M14 melanoma = tested on: M14 melanoma
SNB-75 CNS = tested on: SNB-75 CNS
UO-31 renal = tested on: UO-31 renal
HL-60(TB) leukemia = tested on: HL-60(TB) leukemia
UACC-257 melanoma = tested on: UACC-257 melanoma
SK-MEL-28 melanoma = tested on: SK-MEL-28 melanoma
SK-OV-3 ovarian = tested on: SK-OV-3 ovarian
SNB-19 CNS = tested on: SNB-19 CNS
BT-549 breast = tested on: BT-549 breast
SR leukemia = tested on: SR leukemia
HCT-116 colon = tested on: HCT-116 colon
MCF7 breast = tested on: MCF7 breast
MDA-MB-231 breast = tested on: MDA-MB-231 breast
HT29 colon = tested on: HT29 colon
MDA-N = tested on: MDA-N
CCRF-CEM leukemia = tested on: CCRF-CEM leukemia
PC-3 prostate = tested on: PC-3 prostate
COLO 205 colon = tested on: COLO 205 colon
786-0 renal = tested on: 786-0 renal
A498 renal = tested on: A498 renal
CAKI-1 renal = tested on: CAKI-1 renal
MOLT-4 leukemia = tested on: MOLT-4 leukemia
IGROV1 ovarian = tested on: IGROV1 ovarian
A549 NSCLC = tested on: A549 NSCLC
HCC-2998 colon = tested on: HCC-2998 colon
T-47D breast = tested on: T-47D breast
LOX IMVI melanoma = tested on: LOX IMVI melanoma
SK-MEL-5 melanoma = tested on: SK-MEL-5 melanoma
SF-539 CNS = tested on: SF-539 CNS
U251 CNS = tested on: U251 CNS
OVCAR-3 ovarian = tested on: OVCAR-3 ovarian
HOP-92 NSCLC = tested on: HOP-92 NSCLC
NCI/ADR-RES ovarian = tested on: NCI/ADR-RES ovarian
OVCAR-4 ovarian = tested on: OVCAR-4 ovarian
OVCAR-5 ovarian = tested on: OVCAR-5 ovarian
K-562 leukemia = tested on: K-562 leukemia
SK-MEL-2 melanoma = tested on: SK-MEL-2 melanoma

Question: For `Cc1nn(C(=O)Cc2ccccc2)c2c1C(c1ccc(N(C)C)cc1)SC(N)=N2` (stereo unspecified), which TGI (NCI-H522 lung) is on record?
Answer: > 100 µM

Question: And the TGI (NCI-H226 lung)?
Answer: > 100 µM

Question: What about the TGI (TK-10 renal) of the same compound?
Answer: > 100 µM

Question: And the TGI (OVCAR-8 ovarian)?
Answer: > 100 µM

Question: What about the TGI (MDA-MB-435) of the same compound?
Answer: > 100 µM

Question: And the TGI (HS 578T breast)?
Answer: > 100 µM

Question: And the TGI (UACC-62 melanoma)?
Answer: > 100 µM

Question: What about the TGI (KM12 colon) of the same compound?
Answer: > 100 µM

Question: And the TGI (MALME-3M melanoma)?
Answer: > 100 µM

Question: And the TGI (SF-295 CNS)?
Answer: > 100 µM

Question: What about the TGI (SF-268 CNS) of the same compound?
Answer: > 100 µM

Question: What about the TGI (NCI-H23 lung) of the same compound?
Answer: > 100 µM

Question: What about the TGI (NCI-H460 lung) of the same compound?
Answer: > 100 µM

Question: What about the TGI (HCT-15 colon) of the same compound?
Answer: > 100 µM

Question: What about the TGI (ACHN renal) of the same compound?
Answer: > 100 µM

Question: What about the TGI (HOP-62 NSCLC) of the same compound?
Answer: > 100 µM

Question: And the TGI (DU-145 prostate)?
Answer: > 100 µM

Question: What about the TGI (EKVX NSCLC) of the same compound?
Answer: > 100 µM

Question: What about the TGI (SW-620 colon) of the same compound?
Answer: > 100 µM

Question: What about the TGI (RPMI-8226 leukemia) of the same compound?
Answer: > 100 µM

Question: And the TGI (SN12C renal)?
Answer: > 100 µM

Question: And the TGI (M14 melanoma)?
Answer: > 100 µM

Question: And the TGI (SNB-75 CNS)?
Answer: 32.9 µM

Question: What about the TGI (UO-31 renal) of the same compound?
Answer: > 100 µM

Question: And the TGI (HL-60(TB) leukemia)?
Answer: > 100 µM

Question: And the TGI (UACC-257 melanoma)?
Answer: > 100 µM

Question: What about the TGI (SK-MEL-28 melanoma) of the same compound?
Answer: > 100 µM

Question: What about the TGI (SK-OV-3 ovarian) of the same compound?
Answer: > 100 µM

Question: And the TGI (SNB-19 CNS)?
Answer: > 100 µM

Question: And the TGI (BT-549 breast)?
Answer: > 100 µM

Question: And the TGI (SR leukemia)?
Answer: > 100 µM

Question: And the TGI (HCT-116 colon)?
Answer: > 100 µM

Question: What about the TGI (MCF7 breast) of the same compound?
Answer: > 100 µM

Question: And the TGI (MDA-MB-231 breast)?
Answer: > 100 µM

Question: What about the TGI (HT29 colon) of the same compound?
Answer: > 100 µM

Question: What about the TGI (MDA-N) of the same compound?
Answer: > 100 µM

Question: And the TGI (CCRF-CEM leukemia)?
Answer: > 100 µM

Question: And the TGI (PC-3 prostate)?
Answer: > 100 µM

Question: What about the TGI (COLO 205 colon) of the same compound?
Answer: > 100 µM

Question: What about the TGI (786-0 renal) of the same compound?
Answer: > 100 µM

Question: What about the TGI (A498 renal) of the same compound?
Answer: > 100 µM

Question: What about the TGI (CAKI-1 renal) of the same compound?
Answer: > 100 µM

Question: What about the TGI (MOLT-4 leukemia) of the same compound?
Answer: > 100 µM

Question: What about the TGI (IGROV1 ovarian) of the same compound?
Answer: > 100 µM

Question: What about the TGI (A549 NSCLC) of the same compound?
Answer: > 100 µM

Question: What about the TGI (HCC-2998 colon) of the same compound?
Answer: > 100 µM

Question: And the TGI (T-47D breast)?
Answer: > 100 µM

Question: And the TGI (LOX IMVI melanoma)?
Answer: > 100 µM

Question: What about the TGI (SK-MEL-5 melanoma) of the same compound?
Answer: > 100 µM

Question: And the TGI (SF-539 CNS)?
Answer: > 100 µM

Question: How did the TGI (NCI-H522 lung) turn out when `CO[C@H]1C=C[C@@]23c4cc5c(cc4CO[C@]2(O)CN(C)[C@H]3C1)OCO5` was run?
Answer: > 100 µM

Question: What about the TGI (NCI-H226 lung) of the same compound?
Answer: > 100 µM

Question: And the TGI (TK-10 renal)?
Answer: > 100 µM

Question: And the TGI (OVCAR-8 ovarian)?
Answer: > 100 µM

Question: What about the TGI (MDA-MB-435) of the same compound?
Answer: > 100 µM

Question: What about the TGI (HS 578T breast) of the same compound?
Answer: > 100 µM

Question: And the TGI (U251 CNS)?
Answer: > 100 µM

Question: And the TGI (UACC-62 melanoma)?
Answer: > 100 µM

Question: What about the TGI (KM12 colon) of the same compound?
Answer: > 100 µM

Question: What about the TGI (MALME-3M melanoma) of the same compound?
Answer: > 100 µM

Question: And the TGI (SF-295 CNS)?
Answer: > 100 µM

Question: What about the TGI (SF-268 CNS) of the same compound?
Answer: > 100 µM

Question: And the TGI (NCI-H23 lung)?
Answer: > 100 µM

Question: What about the TGI (NCI-H460 lung) of the same compound?
Answer: > 100 µM

Question: What about the TGI (HCT-15 colon) of the same compound?
Answer: > 100 µM

Question: And the TGI (ACHN renal)?
Answer: > 100 µM

Question: What about the TGI (DU-145 prostate) of the same compound?
Answer: > 100 µM

Question: And the TGI (EKVX NSCLC)?
Answer: > 100 µM

Question: And the TGI (SW-620 colon)?
Answer: > 100 µM

Question: And the TGI (RPMI-8226 leukemia)?
Answer: > 100 µM

Question: What about the TGI (SN12C renal) of the same compound?
Answer: > 100 µM

Question: What about the TGI (M14 melanoma) of the same compound?
Answer: > 100 µM

Question: And the TGI (SNB-75 CNS)?
Answer: > 100 µM

Question: What about the TGI (UO-31 renal) of the same compound?
Answer: > 100 µM

Question: What about the TGI (HL-60(TB) leukemia) of the same compound?
Answer: > 100 µM

Question: And the TGI (UACC-257 melanoma)?
Answer: > 100 µM

Question: What about the TGI (SK-MEL-28 melanoma) of the same compound?
Answer: > 100 µM

Question: And the TGI (SK-OV-3 ovarian)?
Answer: > 100 µM

Question: What about the TGI (SNB-19 CNS) of the same compound?
Answer: > 100 µM

Question: And the TGI (BT-549 breast)?
Answer: > 100 µM

Question: And the TGI (OVCAR-3 ovarian)?
Answer: > 100 µM

Question: What about the TGI (HCT-116 colon) of the same compound?
Answer: > 100 µM

Question: And the TGI (MCF7 breast)?
Answer: > 100 µM

Question: And the TGI (HOP-92 NSCLC)?
Answer: > 100 µM

Question: And the TGI (MDA-MB-231 breast)?
Answer: > 100 µM

Question: What about the TGI (HT29 colon) of the same compound?
Answer: > 100 µM

Question: What about the TGI (MDA-N) of the same compound?
Answer: > 100 µM

Question: What about the TGI (CCRF-CEM leukemia) of the same compound?
Answer: > 100 µM

Question: What about the TGI (PC-3 prostate) of the same compound?
Answer: > 100 µM

Question: What about the TGI (NCI/ADR-RES ovarian) of the same compound?
Answer: > 100 µM

Question: And the TGI (COLO 205 colon)?
Answer: > 100 µM

Question: And the TGI (786-0 renal)?
Answer: > 100 µM

Question: And the TGI (A498 renal)?
Answer: > 100 µM

Question: What about the TGI (CAKI-1 renal) of the same compound?
Answer: > 100 µM

Question: What about the TGI (MOLT-4 leukemia) of the same compound?
Answer: > 100 µM

Question: And the TGI (IGROV1 ovarian)?
Answer: > 100 µM

Question: What about the TGI (A549 NSCLC) of the same compound?
Answer: > 100 µM

Question: And the TGI (OVCAR-4 ovarian)?
Answer: > 100 µM

Question: What about the TGI (HCC-2998 colon) of the same compound?
Answer: > 100 µM

Question: And the TGI (OVCAR-5 ovarian)?
Answer: > 100 µM

Question: And the TGI (K-562 leukemia)?
Answer: > 100 µM

Question: What about the TGI (T-47D breast) of the same compound?
Answer: > 100 µM

Question: And the TGI (SK-MEL-2 melanoma)?
Answer: > 100 µM

Question: What about the TGI (LOX IMVI melanoma) of the same compound?
Answer: > 100 µM

Question: And the TGI (SK-MEL-5 melanoma)?
Answer: > 100 µM

Question: And the TGI (SF-539 CNS)?
Answer: > 100 µM
